Results: patent EP4631931A1, “HDAC INHIBITOR AND USE THEREOF” (Wigen Biomedicine Technology (Shanghai) Co., Ltd., priority 2022, dated 2024)

Experiments:
OVCAR 3 cells = experiment: NK cell-mediated tumor cell killing (NK92 cells, GFP count); format: cell-based; conditions: Homo sapiens, 72 h compound, 1-4 h co-culture, compared to DMSO group, read-out: EC50 in promoting the NK92 cell-mediated OVCAR 3 cell death
Protocol: OVCAR 3 cells […] expressing GFP were seeded into a 96-well plate at 4000 cells/well. After overnight adherence culture, the serially diluted compounds were added, and the plate was incubated for another 72 h. After the two types of cells were mixed and cultured for another 1-4 h, NK92 cells were removed by washing with PBS, and adherent GFP-positive tumor cells were counted. The EC50 of the compounds in promoting the NK92 cell-mediated OVCAR 3 cell death was calculated compared to the DMSO group. Table 11. NK cell-mediated tumor cell killing by compounds of the present disclosure

HeLa cells = experiment: Intracellular acetyl lysine / H3K 27 acetyl lysine level by ELISA; format: cell-based; conditions: 24 h of treatment
Protocol: HeLa cells were seeded into a 96-well plate at 20000 cells/well. After overnight adherence culture, the serially diluted compound was added. After 24 h of treatment, intracellular levels of acetyl lysine and H3K 27 acetyl lysine were quantified by ELISA. Table 9. Effect of compound of the present disclosure on levels of acetyl lysine and H3K 27 acetyl lysine

293T cell = experiment: Inhibition of 293T cell proliferation (CTG, intracellular ATP); format: cell-based; conditions: Homo sapiens, HEK-293T, 72 h, compared to DMSO group, read-out: Inhibitory activity against 293T cell proliferation (IC50)
Protocol: (§1) Jurkat or 293T cells were seeded into a 96-well plate at 3000 cells/well. After overnight adherence culture, the serially diluted compound in DMSO was added. After 72 h, the intracellular ATP level was determined by CTG. The IC50 for the inhibition of cell proliferation by the compounds was calculated compared to the DMSO group. Table 8. Inhibitory activity of compounds of the present disclosure against Jurkat/293T cell proliferation (IC50, µM)

[1] = Pharmacokinetic experiment in mice; format: in vivo, CD-1 female mice; conditions: female, CD-1, mouse, plasma; for Vd: read-out: Vdss
Protocol: CD-1 female mice aged 7 to 10 weeks were intravenously administered and orally administered at doses of 1 mg/kg and 10 mg/kg, respectively. The mice were fasted for at least 12 h before the administration and given food 4 h after the administration, and they were given ad libitum access to water during the experiment.
On the day of the experiment, animals in the intravenous group were given the corresponding compound by single injection via the tail vein at an administration volume of 10 mL/kg; and animals in the oral group were given the corresponding compound by single intragastric injection at an administration volume of 10 mL/kg. The animals were weighed before administration, and the administration volume was calculated according to the body weight. The sample collection time points were 0.083 h, 0.167 h, 0.5 h, 1 h, 2 h, 4 h, 8 h, and 24 h. About 200 µL of whole blood was collected through the orbital venous plexus at each time point and used to prepare plasma for concentration determination by high-performance liquid chromatography-tandem mass spectrometry (LC-MS/MS). The plasma concentrations were processed using a non-compartmental model of Winnolin pharmacokinetic software, and the pharmacokinetic parameters were calculated using a linear-log trapezoidal method. Table 13. Results of in vivo pharmacokinetic evaluation of compounds of the present disclosure

[2] = Stability in liver microsomes; format: in vitro ADME; conditions: 1 µM compound, NADPH, 37 °C
Protocol: After the 1 µM compound was incubated with 0.5 mg/mL of human or mouse liver microsomes and an NADPH regeneration system at 37 °C for different times, respectively, LC-MS-MS was used to analyze the remaining amount of the compound and calculate T1/2. Table 12. Evaluation results of stability of compounds of the present disclosure in human and mouse liver microsomes

HDAC10 = target: T1, HDAC10 (Homo sapiens, UniProt Q969S8); experiment: HDAC enzyme inhibition, fluorometric assay; format: biochemical; conditions: read-out: Inhibitory activity against HDAC10 (IC50)
T1 sequence (Q969S8 1-669): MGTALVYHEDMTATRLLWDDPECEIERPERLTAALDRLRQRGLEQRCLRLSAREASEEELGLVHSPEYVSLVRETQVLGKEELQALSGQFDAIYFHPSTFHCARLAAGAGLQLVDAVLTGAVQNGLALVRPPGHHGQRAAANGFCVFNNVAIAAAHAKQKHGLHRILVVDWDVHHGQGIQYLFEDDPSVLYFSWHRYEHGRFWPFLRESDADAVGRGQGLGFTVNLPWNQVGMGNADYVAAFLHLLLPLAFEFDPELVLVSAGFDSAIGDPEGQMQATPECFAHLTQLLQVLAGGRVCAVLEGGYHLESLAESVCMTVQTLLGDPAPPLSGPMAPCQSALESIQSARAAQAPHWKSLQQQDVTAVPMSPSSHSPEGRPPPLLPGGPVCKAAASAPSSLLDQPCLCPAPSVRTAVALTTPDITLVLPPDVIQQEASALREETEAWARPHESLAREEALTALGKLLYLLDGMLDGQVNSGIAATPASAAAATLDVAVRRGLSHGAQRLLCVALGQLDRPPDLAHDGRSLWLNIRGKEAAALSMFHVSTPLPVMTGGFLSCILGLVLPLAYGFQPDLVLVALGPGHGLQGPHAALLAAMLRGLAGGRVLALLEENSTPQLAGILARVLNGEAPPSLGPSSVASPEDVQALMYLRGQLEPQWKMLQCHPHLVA
Protocol: Serially diluted DMSO sample solutions were added to the reaction wells, enzymes were added to a 384-well plate, and a reaction buffer was added to the control wells. The plate was incubated at room temperature for 15 min. After the fluorogenic substrate solution was added, the reaction was started. Fluorescence intensity readings (excitation: 355 nm, emission: 460 nm) were recorded every minute for 60 min using a Paradigm detector, and the slope values were calculated. Inhibition rate (%) = (maximum value - sample value)/(maximum value - minimum value) × 100%. The IC50 values were obtained by fitting a curve using the equation: Y = Bottom + (Top - Bottom)/(1 + (IC50/X)^HillSlope), where Y represents the inhibition rate and X represents the concentration of the compound. Table 10. Inhibitory activity of compound of the present disclosure against HDAC1, HDAC2, HDAC3, and HDAC10 (IC50, nM)

Jurkat cell = experiment: Inhibition of Jurkat cell proliferation (CTG, intracellular ATP); format: cell-based; conditions: Homo sapiens, 72 h, compared to DMSO group, read-out: Inhibitory activity against Jurkat cell proliferation (IC50)
Protocol: as §1

[3] = Injection (1 mg/kg), intravenous
[4] = Human liver microsomes 0.5 mg/mL
[5] = Mouse liver microsomes 0.5 mg/mL

SMILES	EC50 (OVCAR 3 cells)	Acetyl lysine Maximum (%) (HeLa cells)	Acetyl lysine Minimum effective concentration (HeLa cells)	H3K 27 Acetyl lysine Maximum (%) (HeLa cells)	H3K 27 Acetyl lysine Minimum effective concentration (HeLa cells)	IC50 (293T cell)	AUC(0-t) [1, 3]	clearance [1, 3]	half-life [1, 3]	Vd [1, 3]	AUC(0-t) ([1]; Oral administration (10 mg/kg))	Cmax ([1]; Oral administration (10 mg/kg))	Tmax ([1]; Oral administration (10 mg/kg))	bioavailability ([1]; Oral administration (10 mg/kg))	half-life ([1]; Oral administration (10 mg/kg))	CLint scaled at 1 µM [2, 4]	Clliver [2, 4]	half-life at 1 µM [2, 4]	CLint scaled at 1 µM [2, 5]	Clliver [2, 5]	also measured
Nc1cc(F)ccc1NC(=O)c1ccc(CNC(=O)/C=C/c2cccnc2)cc1 [Chidamide, reference compound]	161 nM	420%	80 nM	380%	80 nM	6710 nM	539 ng·h/mL	33.9 mL/min/kg	2.03 h	1.55 L/kg	2490 ng·h/mL	3750 ng/mL	0.17 h	46.1%	3.51 h	20.9 mL/min/kg	10.41 mL/min/kg	1.38 h	222 mL/min/kg	64.04 mL/min/kg	half-life at 1 µM [2, 5]: 0.41 h; IC50 (HDAC10): 318 nM; IC50 (Jurkat cell): 1620 nM
[2H]c1cc(C(=O)Nc2ccc(F)cc2N)ccc1CNC(=O)/C=C/c1cccnc1 [Compound 5, (E)-N-(2-amino-4-fluorophenyl)-4-((3-(pyridin-3-yl)acrylamido)methyl)-3-d benzamide]	33.7 nM	350%	16 nM	420%	80 nM	> 10000 nM	453 ng·h/mL	36.8 mL/min/kg	1.28 h	1.13 L/kg	2360 ng·h/mL	1330 ng/mL	0.17 h	52%	3.13 h	7.95 mL/min/kg	5.74 mL/min/kg	3.64 h	231 mL/min/kg	64.79 mL/min/kg	half-life at 1 µM [2, 5]: 0.393 h; IC50 (HDAC10): 127 nM; IC50 (Jurkat cell): 590 nM
